# In US9556165B2 (priority 2012, dated 2017):
# Read-outs that look alike come from different tables or passages of the source.
# Tests used:
# Assay type in all cases: cell-based
# E. coli ATCC25922 = experiment: MIC determination, broth microdilution (CLSI); details: Escherichia coli, ATCC25922, strain 1
# C. freundii K21/3034 = experiment: MIC determination, broth microdilution (CLSI); details: Citrobacter freundii, K21/3034, strain 4
# [1] = test system: P. aeruginosa 2297-con (AmpC derepressed); experiment: MIC determination, broth microdilution (CLSI); details: Pseudomonas aeruginosa, read-out: strain 8 MIC, strain 8
# H. influenzae ATCC 49247 = experiment: MIC determination, broth microdilution (CLSI); details: Haemophilus influenzae, ATCC49247, strain 12; broth microdilution; read-out: MIC strain 12 (H. influenzae ATCC 49247)
# E. coli J62 = experiment: MIC determination, broth microdilution (CLSI); details: Escherichia coli, J62, strain 17; broth microdilution; read-out: MIC strain 17 (E. coli J62)
# P. aeruginosa PAO1 = experiment: MIC determination, broth microdilution (CLSI); details: Pseudomonas aeruginosa, PAO1, strain 6
# S. pneumoniae 113 = experiment: MIC determination, broth microdilution (CLSI); details: Streptococcus pneumoniae, 113, strain 13; broth microdilution; read-out: MIC strain 13 (S. pneumoniae 113)
# [2] = test system: P. aeruginosa 2297 (AmpC wt); experiment: MIC determination, broth microdilution (CLSI); details: Pseudomonas aeruginosa, strain 7
# B. fragilis 6688 = experiment: MIC determination, broth microdilution (CLSI); details: Bacteroides fragilis, 6688, strain 15; broth microdilution; read-out: MIC strain 15 (B. fragilis 6688)
# E. cloacae 34654 = experiment: MIC determination, broth microdilution (CLSI); details: Enterobacter cloacae, 34654, strain 3
# K. pneumoniae 60 = experiment: MIC determination, broth microdilution (CLSI); details: Klebsiella pneumoniae, 60, strain 2
# E. coli J62-TEM-3 = experiment: MIC determination, broth microdilution (CLSI); details: Escherichia coli, J62TEM3, read-out: MIC strain 18 (E. coli J62-TEM-3), strain 18; broth microdilution
# Bacteria = experiment: MIC determination in combination with β-lactamase inhibitors (constant 4 μg/mL)
# A. baumannii ATCC15308 = experiment: MIC determination, broth microdilution (CLSI); details: Acinetobacter baumannii, ATCC15308, strain 9
# S. aureus 133 = experiment: MIC determination, broth microdilution (CLSI)
# M. morganii 126/3048 = experiment: MIC determination, broth microdilution (CLSI); details: Morganella morganii, 126/3048, strain 5
# [3] = Staphylococcus aureus, 133, strain 11, read-out: strain 11 MIC
# [4] = Staphylococcus aureus, 133, strain 14, broth microdilution, read-out: MIC strain 14 (S. aureus 133)
SMILES,MIC (E. coli ATCC25922),MIC (C. freundii K21/3034),MIC [1],MIC (H. influenzae ATCC 49247),MIC (E. coli J62),MIC (P. aeruginosa PAO1),MIC (S. pneumoniae 113),MIC [2],MIC (B. fragilis 6688),MIC (E. cloacae 34654),MIC (K. pneumoniae 60),MIC (E. coli J62-TEM-3),MIC strain 19 (E. coli J62-TEM-3 + 4 μg/mL clavulanic acid) (Bacteria),MIC strain 20 (E. coli J62-TEM-3 + 4 μg/mL sulbactam) (Bacteria),MIC strain 21 (E. coli J62-TEM-3 + 4 μg/mL tazobactam) (Bacteria),MIC (A. baumannii ATCC15308),MIC (S. aureus 133; [3]),MIC (S. aureus 133; [4]),MIC (M. morganii 126/3048)
"CNC(=N)c1ccc(OCCO/N=C(\C(=O)N[C@@H]2C(=O)N(S(=O)(=O)O)[C@H]2C)c2csc(N)n2)cc1 [Example 68, (2S,3S)-3-{[(2Z)-2-(2-Amino-1,3-thiazol-4-yl)-2-({2-[4-(N-methylcarbamimidoyl)-phenoxy]ethoxy}imino)acetyl]amino}-2-methyl-4-oxoazetidine-1-sulfonic acid]",0.125 µg/mL,0.125 µg/mL,32 µg/mL,0.125 µg/mL,0.25 µg/mL,2 µg/mL,0.5 µg/mL,8 µg/mL,8 µg/mL,0.125 µg/mL,0.25 µg/mL,16 µg/mL,0.125 µg/mL,0.25 µg/mL,0.25 µg/mL,2 µg/mL,≤ 0.063 µg/mL,2 µg/mL,0.125 µg/mL
"C[C@H]1[C@H](NC(=O)/C(=N\OCCOc2ccc(C(=N)N)cc2COC=O)c2csc(N)n2)C(=O)N1S(=O)(=O)O [Example 60, (2S,3S)-3-({(2Z)-2-(2-Amino-1,3-thiazol-4-yl)-2-[(2-{4-carbamimidoyl-2-[(formyloxy)-methyl]phenoxy}ethoxy)imino]acetyl}amino)-2-methyl-4-oxoazetidine-1-sulfonic acid]",1 µg/mL,1 µg/mL,32 µg/mL,1 µg/mL,2 µg/mL,16 µg/mL,1 µg/mL,16 µg/mL,16 µg/mL,2 µg/mL,1 µg/mL,32 µg/mL,2 µg/mL,2 µg/mL,2 µg/mL,4 µg/mL,0.25 µg/mL,16 µg/mL,0.5 µg/mL
"C[C@H]1[C@H](NC(=O)/C(=N\OCCOc2ccc(CC(=N)N)cc2)c2csc(N)n2)C(=O)N1S(=O)(=O)O [Example 62, (2S,3S)-3-{[(2Z)-2-({2-[4-(2-Amino-2-iminoethyl)phenoxy]ethoxy}imino)-2-(2-amino-1,3-thiazol-4-yl)acetyl]amino}-2-methyl-4-oxoazetidine-1-sulfonic acid]",1 µg/mL,0.5 µg/mL,32 µg/mL,0.25 µg/mL,1 µg/mL,4 µg/mL,1 µg/mL,8 µg/mL,16 µg/mL,1 µg/mL,0.5 µg/mL,16 µg/mL,1 µg/mL,1 µg/mL,1 µg/mL,2 µg/mL,0.125 µg/mL,8 µg/mL,0.125 µg/mL
"C[C@H]1[C@H](NC(=O)/C(=N\OCCCOc2ccc(NC(=N)N)cc2)c2csc(N)n2)C(=O)N1S(=O)(=O)O [Example 51, (2S,3S)-3-{[(2Z)-2-(2-Amino-1,3-thiazol-4-yl)-2-{[3-(4-carbamimidamidophenoxy)propoxy]imino}acetyl]amino}-2-methyl-4-oxoazetidine-1-sulfonic acid]",2 µg/mL,2 µg/mL,32 µg/mL,0.5 µg/mL,4 µg/mL,16 µg/mL,1 µg/mL,16 µg/mL,16 µg/mL,2 µg/mL,4 µg/mL,–,4 µg/mL,4 µg/mL,4 µg/mL,4 µg/mL,0.5 µg/mL,8 µg/mL,2 µg/mL
C[C@H]1[C@H](NC(=O)/C(=N\OCCOc2ccc(C(=N)N)cc2)c2nsc(N)n2)C(=O)N1S(=O)(=O)O [Example 52],1 µg/mL,0.25 µg/mL,16 µg/mL,8 µg/mL,2 µg/mL,4 µg/mL,16 µg/mL,4 µg/mL,32 µg/mL,1 µg/mL,0.5 µg/mL,–,2 µg/mL,2 µg/mL,2 µg/mL,1 µg/mL,2 µg/mL,8 µg/mL,1 µg/mL
"C[C@H]1[C@H](NC(=O)/C(=N\OCCOc2ccc(NC(=N)N)cc2)c2csc(N)n2)C(=O)N1S(=O)(=O)O [Example 50, (2S,3S)-3-{[(2Z)-2-(2-Amino-1,3-thiazol-4-yl)-2-{[2-(4-carbamimidamidophenoxy)ethoxy]imino}acetyl]amino}-2-methyl-4-oxoazetidine-1-sulfonic acid]",0.5 µg/mL,1 µg/mL,32 µg/mL,0.25 µg/mL,1 µg/mL,8 µg/mL,1 µg/mL,16 µg/mL,16 µg/mL,1 µg/mL,0.5 µg/mL,–,1 µg/mL,1 µg/mL,1 µg/mL,2 µg/mL,0.125 µg/mL,8 µg/mL,0.5 µg/mL
"C[C@H]1[C@H](NC(=O)/C(=N\OCCOc2ccc(C(=N)N)cc2Br)c2csc(N)n2)C(=O)N1S(=O)(=O)O [Example 49, (2S,3S)-3-{[(2Z)-2-(2-Amino-1,3-thiazol-4-yl)-2-{[2-(2-bromo-4-carbamimidoyl-phenoxy)ethoxy]imino}acetyl]amino}-2-methyl-4-oxoazetidine-1-sulfonic acid]",1 µg/mL,1 µg/mL,32 µg/mL,0.5 µg/mL,2 µg/mL,8 µg/mL,0.5 µg/mL,16 µg/mL,16 µg/mL,2 µg/mL,2 µg/mL,–,2 µg/mL,2 µg/mL,2 µg/mL,4 µg/mL,0.125 µg/mL,16 µg/mL,2 µg/mL
"C[C@@H]1[C@H](NC(=O)/C(=N\OCCCOc2ccc(C(=N)N)cc2)c2csc(N)n2)C(=O)N1S(=O)(=O)O [Example 48, (2R,3S)-3-{[(2Z)-2-(2-Amino-1,3-thiazol-4-yl)-2-{[3-(4-carbamimidoylphenoxy)propoxy]imino}acetyl]amino}-2-methyl-4-oxoazetidine-1-sulfonic acid]",2 µg/mL,2 µg/mL,32 µg/mL,0.5 µg/mL,2 µg/mL,8 µg/mL,1 µg/mL,16 µg/mL,16 µg/mL,4 µg/mL,4 µg/mL,–,2 µg/mL,2 µg/mL,2 µg/mL,8 µg/mL,0.5 µg/mL,4 µg/mL,1 µg/mL
"C[C@H]1[C@H](NC(=O)/C(=N\OCCOc2ccc(C(=N)N)cc2CO)c2csc(N)n2)C(=O)N1S(=O)(=O)O [Example 59, (2S,3S)-3-{[(2Z)-2-(2-Amino-1,3-thiazol-4-yl)-2-({2-[4-carbamimidoyl-2-(hydroxymethyl)phenoxy]ethoxy}imino)acetyl]amino}-2-methyl-4-oxoazetidine-1-sulfonic acid]",1 µg/mL,0.5 µg/mL,32 µg/mL,1 µg/mL,2 µg/mL,16 µg/mL,0.5 µg/mL,16 µg/mL,16 µg/mL,1 µg/mL,1 µg/mL,32 µg/mL,2 µg/mL,2 µg/mL,2 µg/mL,1 µg/mL,0.25 µg/mL,32 µg/mL,1 µg/mL
